Values of other authors, collected in patent US8440231B2, “Swellable particles for drug delivery” (STC.UNM, priority 2006, dated 2013).

CC(=O)N[C@@H](CS)C(=O)O [NACS, N-acetylcysteine]
soluble in water: 100 mg/mL
